What was measured:
Format in all cases: physicochemical
[1] = High-humidity stability (75% RH, 40° C.), content by HPLC peak area normalization
Procedure: (§1) Follow tests are performed for the amorphous bulk pharmaceutical chemical of embodiment 1 and the crystal form A prepared in embodiment 2: • (1) Light stability: the test sample is placed in an environment having a temperature of 25° C. and a light condition of 4500 Lux for 5 days and 10 days, respectively, to test the stability of the crystal form. Samples are collected at the same point at 5th and 10th day to measure content by HPLC peak area normalization method. […] Samples are collected at the same point at 5th and 10th day to measure content by HPLC peak area normalization method. […] Samples are collected at the same point at 5th and 10th day to measure content by HPLC peak area normalization method.

[2] = Light stability (25° C., 4500 Lux), content by HPLC peak area normalization
Procedure: as §1

[3] = High-temperature stability (60° C.), content by HPLC peak area normalization
Procedure: as §1

[4] = Hygroscopicity study by dynamic vapor sorption (DVS); settings: 25° C.
Procedure: • Model: BRUKER D8 DISCOVER (BRUKER, Germany) • Method: Cu target Ka, voltage: 40 KV, current: 40 mA, test angle: 3-45°, scanning step: 0.02, exposure time: 0.2 S, slit width of light pipe: 1 mm, slit width of detector: 2.7 mm. X-Ray Single Crystal Diffractometer SXRD • Model: BRUKER D8 QUEST (BRUKER, Germany) • Method: Cu target, voltage: 40 KV, current: 30 mA Differential Scanning Calorimeter DSC • Model: TA 250 (TA Instruments, US) • Method: heating at a rate of 10° C./min. Thermal Gravimetric Analysis TGA • Model: TA 550 (TA Instruments, US); • Method: heating at a rate of 10° C./min. Dynamic Vapor Sorption DVS • Model: DVS intrinsic (SMS, British); • Method: 25° C., relative humidity is stepped up at a rate of 10% per step, and the judgment standard is change in moisture content is <0.002% over a 10-minute period. Light Incubator • Model: MGC-100 (Shanghai Yiheng Scientific Instrument Co., Ltd.) Ultrasound Equipment • Model: KQ-3200 (Shanghai Alloy Ultrasonic Equipment Co., Ltd.) Programmable Temperature and Humidity Chamber for Drug Stability • Model: CMA-100C (Shanghai Puhan Precision Equipment Co., Ltd.) […]

[5] = Hygroscopicity of compound of formula (I) prepared according to CN103819403B; settings: within 10 min under a humidity of RH 45%
Excerpt: The inventors of the present invention prepared the compound of formula (I) according to the preparation method as described in CN103819403B, and carried out analysis. […] Especially, the prepared compound of formula (I) was found easy to decompose in environment of high temperature or high humidity or under strong lights, causing rapid decrease in the content of active ingredients. […] Therefore, a strict management would be required during use of the compound of formula (I), rendering the compound unsuitable for use as a bulk pharmaceutical chemical.

Purity (%) after high-humidity stability test ([1]; 5 days) | Purity (%) after high-humidity stability test ([1]; 10 days) | Purity (%) after light stability test ([2]; 5 days) | Purity (%) after light stability test ([2]; 10 days) | Purity (%) after high-temperature stability test ([3]; 5 days) | Purity (%) after high-temperature stability test ([3]; 10 days) | weight change in each step of 10 min ([4]; each RH 10% step of 10 min) | weight increase because of hygroscopicity [5] | weight increase due to moisture absorption ([4]; RH 0 to RH 90%, RH 10% per step, 10 min per step) | SMILES
98.52% | 98.56% | 91.78% | 89.07% | 98.64% | 98.72% | less than 0.02% | – | – | CN1Cc2c(Cl)cc(Cl)cc2[C@@H](c2cccc(S(=O)(=O)NCCOCCOCCNC(=O)NCCCCNC(=O)NCCOCCOCCNS(=O)(=O)c3cccc([C@@H]4CN(C)Cc5c(Cl)cc(Cl)cc54)c3)c2)C1 [crystal form A]
– | – | – | – | – | – | – | up to 2% | – | CN1Cc2c(Cl)cc(Cl)cc2[C@@H](c2cccc(S(=O)(=O)NCCOCCOCCNC(=O)NCCCCNC(=O)NCCOCCOCCNS(=O)(=O)c3cccc([C@@H]4CN(C)Cc5c(Cl)cc(Cl)cc54)c3)c2)C1 [compound of formula (I)]
81.63% | 79.78% | 72.54% | 71.99% | 61.62% | 58.98% | – | – | 7% | CN1Cc2c(Cl)cc(Cl)cc2[C@@H](c2cccc(S(=O)(=O)NCCOCCOCCNC(=O)NCCCCNC(=O)NCCOCCOCCNS(=O)(=O)c3cccc([C@@H]4CN(C)Cc5c(Cl)cc(Cl)cc54)c3)c2)C1 [amorphous bulk pharmaceutical chemical]

From patent US12122762B2, “Crystal form a of NHE3 inhibitor, preparation method therefor and application thereof” (SHENZHEN RENTAI PHARMATECH LTD., priority 2019, dated 2024)
